Test results published in ChEMBL document CHEMBL1152696, “Interaction study of bioactive molecules with fibrinogen and human platelets determined by 1H NMR relaxation experiments” (Bioorg Med Chem, 2009).

Experiments:
[1] = tested on: Platelet; experiment: Binding interaction with platelet assessed as spin lattice relaxation rate enumerated as normalized affinity index at given concentration and fixed temperature by NMR relaxation experiment; type: cell-based
[2] = Binding interaction with fibrinogen assessed as spin lattice relaxation rate enumerated as normalized affinity index at given concentration and fixed temperature by NMR relaxation experiment

[A]T,L [2]	Compound	[A]T,L (10'-8 /no of units.cm'3) [1]
26900 /mol.dm'3	CNC[C@H](O)c1ccc(O)c(O)c1	4.66
9730 /mol.dm'3	CC(C)NCC(O)c1ccc(O)c(O)c1 (centres undefined)	4.47
